# According to US20250018030A1, “PHARMACEUTICAL COMPOSITION FOR PROMOTING CANCER IMMUNOTHERAPY AND METHOD FOR PROMOTING CANCER IMMUNOTHERAPY” (China Medical University, priority 2023, published 2025):
# Test system: Th2 cells and regulatory T cells (Treg)
# Assay: Populations of Th2 cells and Treg cells after genipin
# Type: cell-based, Mouse
# Settings: genipin-treated; data not shown
# Protocol: Mouse lymph nodes and spleens were harvested, and naïve CD4 or CD8 T cells isolated via magnetic bead separation (STEMCELL Technologies) and activated in α-CD3 (10 μg/ml) and α-CD28 (1 μg/ml) pre-coated 96-well plates. Skewing conditions were as follows: Th1 cells/Tc1 cells ([…] 10 μ/ml α-IL-4), Th2 cells/Tc2 cells (20 ng/ml IL-4 and 10 μ/ml α-IFN-γ), Th17 cells/Tc17 cells (20 ng/ml IL-6, 1.25 ng/ml […], 20 ng/ml IL-1β, 20 ng/ml IL-23, 10 μg/ml α-IFN-γ and 10 μg/ml α-IL-4), and Treg cells (5 ng/ml TGF-β, 10 μg/ml α-IFN-γ and 10 μg/ml α-IL-4) in the indicated medium. Cells were cultured for 4-5 days followed by treatment with genipin (3.125 μM, 6.25 μM, 12.5 μM) or DMSO for 12-16 hours.
# Monoclonal antibodies were purchased from BD Biosciences or eBioscience. For intracellular cytokine staining (ICS), cells were first restimulated by PMA/ionomycin for 5 hours in the presence of GolgiStop (BD Biosciences), followed by surface epitope staining markers before being fixed/permeabilized (BD Cytofix/Cytoperm™) and stained with antibodies targeting intracellular antigens. Cells were finally fixed with 1.5% formaldehyde for 10 minutes at room temperature and analyzed on a FACSVerse flow cytometer (BD Bioscience). Data were analyzed using FlowJo software (Tree Star Inc.).
compound,measurement,value
COC(=O)C1=CO[C@@H](O)[C@@H]2C(CO)=CC[C@H]12 [genipin],Population of Th2 cells,nor significantly altering the populations
same,Population of regulatory T cells (Treg),nor significantly altering the populations
